Measured values reported in patent US9446034B2, “Pyrazolylaminopyridines as inhibitors of FAK” (GlaxoSmithKline LLC, priority 2008, dated 2016).

Tests used:
[1] = biological target: T1, GST-tagged FAK (Homo sapiens, UniProt Q05397); assay: Biochemical assay for FAK activity, Assay 1: GST-FAK, peptide substrate phosphorylation with 33P-ATP; details: 5 μM ATP, 30 min pre-incubation, read-out: Assay 1 FAK TRF PXC50 (converted)
T1 construct: purchased Invitrogen PV3832
Experimental: (§1) Biochemical Assay for FAK Activity
To measure inhibitors of FAK, compounds were first prepared as a 10× stock in 10% DMSO. […] A 6-nM GST-FAK solution was prepared in 1.1× reaction buffer containing 44 mM HEPES, pH=7.2, 11 mM MgCl2, 2.2 mM MnCl2, 1.1 mM DTT and 0.011% Tween-20. Then, 20 μL of the 6 nM GST-FAK solution were pre-incubated with the compounds for 30 min at room temperature. […] The reaction was allowed to proceed for 90 min before being quenched with 40 μL of 1% H3PO4. A portion of the reaction mixture (60 μL) was transferred to a phospho-cellulose filter plate (Millipore; www.millipore.com, MAPHNOB50) and incubated for 20 minutes. The plate was filtrated, washed three times using 150 μL of 0.5% H3PO4 and dried at 50° C. for 30 min. After the addition of 60 μL Microscint-20 to the plate, radioactivity was measured using a TopCount (PerkinElmer; www.PerkinElmer.com).

[2] = biological target: T2, Full length Human FAK (FLAG-6×His-TEV-huFAK) (Homo sapiens, UniProt Q05397); assay: Biochemical assay for FAK activity, Assay 2: Flag-His-TEV-FAK1, LANCE Ultra ULight peptide phosphorylation; details: Flag-His-TEV-FAK1, 10 μM ATP, 30 min pre-incubation; read-out: Assay 2 FAK H 31284A TRF PXC50 (converted)
T2 construct: Full length Human FAK was expressed using baculovirus in Sf9 cells; made in house; host or cells: baculovirus in Sf9 cells
Experimental: as §1
Assay 2: Flag-His-TEV-FAK1 was prepared in-house. Full length Human FAK was expressed using baculovirus in Sf9 cells with N-terminal FLAG-6×His tags followed by a TEV cleavage site (FLAG-6×His-TEV-huFAK). […] To measure inhibitors of FAK, compounds were first prepared as a 100× stock in 100% DMSO. A small portion of each compound solution (50 nL) was added to a black 384-well low-volume microtiter plate (Greiner 784076). A 1.2 nM Flag-His-TEV-FAK1 solution was prepared in 1× reaction buffer containing 40 mM Tris/Tris-HCL, 10 mM MgCl2, 1 mM CHAPS, at a pH of 7.5, with 1 mM DTT added. 2.5 ul of the 1.2 nM Flag-FAK solution was added to the plates and pre-incubated with the compounds for 30 min at room temperature. […] After incubating for 120 minutes at room temperature, the reaction is quenched by adding 5 uL of 20 mM EDTA and 5nMEu-Anti-pTyr antibody in 1× LANCE detection buffer. After a 30 minute incubation at room temperature, the plate is read on a Perkin Elmer Viewlux with a 320-340 nm excitation filter and measuring emission at 615 nm and 665 nm. The ratio of 665 nm/615 nm is used for data normalization.

T2 sequence (Q05397 whole entry): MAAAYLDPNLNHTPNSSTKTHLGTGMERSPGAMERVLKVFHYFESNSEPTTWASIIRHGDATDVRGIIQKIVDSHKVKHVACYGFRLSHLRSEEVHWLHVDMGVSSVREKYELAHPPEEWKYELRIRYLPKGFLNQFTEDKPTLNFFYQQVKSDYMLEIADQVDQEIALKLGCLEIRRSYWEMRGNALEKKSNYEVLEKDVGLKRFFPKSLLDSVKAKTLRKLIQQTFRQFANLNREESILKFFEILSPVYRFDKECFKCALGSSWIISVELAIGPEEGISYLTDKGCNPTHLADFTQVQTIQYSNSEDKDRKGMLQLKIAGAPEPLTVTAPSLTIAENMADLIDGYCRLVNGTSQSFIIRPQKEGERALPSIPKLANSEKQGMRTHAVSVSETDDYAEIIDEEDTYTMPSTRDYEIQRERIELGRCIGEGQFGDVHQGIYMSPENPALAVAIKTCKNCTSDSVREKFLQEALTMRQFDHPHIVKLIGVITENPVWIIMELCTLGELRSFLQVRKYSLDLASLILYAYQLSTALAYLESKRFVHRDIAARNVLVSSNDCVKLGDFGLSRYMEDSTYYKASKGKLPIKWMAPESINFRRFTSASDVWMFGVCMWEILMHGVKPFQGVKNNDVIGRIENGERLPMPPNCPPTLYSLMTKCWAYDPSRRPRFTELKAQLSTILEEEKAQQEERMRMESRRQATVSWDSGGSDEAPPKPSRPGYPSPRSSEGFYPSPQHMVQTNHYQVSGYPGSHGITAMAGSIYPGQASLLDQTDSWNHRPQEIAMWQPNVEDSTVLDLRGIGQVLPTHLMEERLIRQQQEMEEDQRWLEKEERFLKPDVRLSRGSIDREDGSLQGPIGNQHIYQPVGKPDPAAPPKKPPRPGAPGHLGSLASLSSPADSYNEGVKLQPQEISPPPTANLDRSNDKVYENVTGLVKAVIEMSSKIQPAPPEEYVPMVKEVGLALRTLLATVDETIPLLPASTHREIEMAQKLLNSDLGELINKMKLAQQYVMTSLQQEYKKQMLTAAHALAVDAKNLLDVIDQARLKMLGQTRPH
T1 sequence (Q05397 whole entry): as above

For `CCn1nccc1Nc1cc(Nc2cc(F)c(F)cc2C(=O)NC)c(Cl)cn1` [Example 10, 2-({5-Chloro-2-[(1-ethyl-1H-pyrazol-5-yl)amino]-4-pyridinyl}amino)-4,5-difluoro-N-methylbenzamide], the IC50 [1] was 0.794 nM and the IC50 [2] was 10 nM.

Compound `CCNC(=O)c1ccccc1Nc1cc(Nc2ccnn2CC)ncc1Cl` [Example 44, 2-({5-Chloro-2-[(1-ethyl-1H-pyrazol-5-yl)amino]-4-pyridinyl}amino)-N-ethylbenzamide] has an IC50 [1] of 6.31 nM and an IC50 [2] of 63.1 nM.
